# Test results from US20130183239A1, “ISOTOPIC CARBON CHOLINE ANALOGS” (IMPERIAL COLLEGE, priority 2010, published 2013).
# What was measured:
# choline oxidase = test: Enzymatic oxidation study using choline oxidase; details: 60 minute time point, radio-HPLC
# [1] = mouse, in vivo
# Protocol: Metabolite analysis of tissues including liver, kidney and tumor by HPLC was also accomplished. […] Choline and its metabolites lack any UV chromophore to permit presentation of chromatograms of the cold unlabelled compound simultaneously with the radioactivity chromatograms.
# Liver, kidney, and tumor samples were obtained at 30 min. All samples were snap-frozen in liquid nitrogen. For analysis, samples were thawed and kept at 4° C. immediately before use. To ˜0.2 mL plasma was added ice-cold methanol (1.5 mL). The mixture was then centrifuged (3 min, 15,493×g, 4jC). The supernatant was evaporated to dryness using a rotary evaporator (Heidoloph Instruments) at a bath temperature of 40° C. The residue was suspended in mobile phase (1.1 mL), clarified (0.2 Am filter), and analyzed by HPLC. Liver, kidney, and tumor samples were homogenized in ice-cold methanol (1.5 mL) using an IKA Ultra-Turrax T-25 homogenizer and subsequently treated as per plasma samples (above). All samples were analyzed by radio-HPLC on an Agilent 1100 series HPLC system (Agilent Technologies) equipped with a γ-RAM Model 3 γ-detector (IN/US Systems) and Laura 3 software (Lablogic). The stationary phase comprised a Waters μBondapak C18 reverse-phase column (300×7.8 mm) (Waters, Milford, Mass., USA). Samples were analyzed using a mobile phase comprising solvent A (acetonitrile/water/ethanol/acetic acid/1.0 mol/L ammonium acetate/0.1 mol/L sodium phosphate; 800/127/68/2/3/10) and solvent B (acetonitrile/water/ethanol/acetic acid/1.0 mol/L ammonium acetate/0.1 mol/L sodiumphosphate; 400/400/68/44/88/10) with a gradient of 0% B for 6 min, then 0→100% B in 10 min, 100% B for 0.5 min, 100→0% B in 1.5 min then 0% B for 2 min, delivered at a flow rate of 3 mL/min.
# [2] = tested on: human melanoma (A375), prostate (PC3-M) and colon (HCT116) cancer cell lines; test: In vitro 18F-D4-choline uptake in cancer cell lines; assay type: cell-based; details: the three cell lines over 30 min
# Protocol: Uptake was measured in vehicle-treated (closed symbols) and hemicholinium-3-treated cells (5 mM; open symbols). Mean values+SEM are shown (n=3). Insert: representative western blot of choline kinase-α expression in the three cell lines. Actin was used as a loading control. Abbreviations: CKα, choline kinase alpha.
# Cells (5×10^5) were plated into 6-well plates the night prior to analysis. On the day of the experiment, fresh growth medium, containing 40 μCi ^18F-D4-choline, was added to individual wells. Cell uptake was measured following incubation at 37° C. in a humidified atmosphere of 5% CO2 for 60 min. Plates were subsequently placed on ice, washed 3 times with ice-cold PBS and lysed in RIPA buffer (Thermo Fisher Scientific Inc., Rockford, Ill., USA; 1 mL, 10 min). […] Aliquots were snap-frozen and used for protein determination following radioactive decay using a BCA 96-well plate assay (Thermo Fisher Scientific Inc., Rockford, Ill., USA). Data were expressed as percent of total radioactivity per mg protein. For hemicholinium-3 treatment (5 mM; Sigma-Aldrich), cells were incubated with the compound 30 min prior to addition of radioactivity and for the duration of the uptake time course. […]
# [3] = tested on: human melanoma SKMEL-28 xenografts; details: mouse, in vivo
# Protocol: Dynamic [^18F]FCH and [^18F]D4-FCH imaging scans were carried out on a dedicated small animal PET scanner, quad-HIDAC (Oxford Positron Systems). The features of this instrument have been described previously (Barthel, H., et al., Cancer Res 2003; 63(13):3791-8). For scanning the tail veins, vehicle- or drug-treated mice were cannulated after induction of anesthesia (isofluorane/O2/N2O). The animals were placed within a thermostatically controlled jig (calibrated to provide a rectal temperature of ˜37° C.) and positioned prone in the scanner. [^18F]FCH or [^18F]D4-FCH (2.96-3.7 MBq) was injected via the tail vein cannula and scanning commenced. Dynamic scans were acquired in list mode format over a 60 min period as reported previously (Leyton, J., et al., Cancer Research 2006; 66(15):7621-9). The acquired data were sorted into 0.5 mm sinogram bins and 19 time frames (0.5×0.5×0.5 mm voxels; 4×15, 4×60, and 11×300 s) for image reconstruction, which was done by filtered back-projection using a two-dimensional Hamming filter (cutoff 0.6). The image data sets were visualized using the Analyze software (version 6.0; Biomedical Imaging Resource, Mayo Clinic). Cumulative images of 30 to 60 min dynamic data were used for visualization of radiotracer uptake and to draw regions of interest. Regions of interest were defined manually on five adjacent tumor regions (each 0.5 mm thickness). Dynamic data from these slices were averaged for each tissue (liver, kidney, muscle, urine, and tumor) and at each of the 19 time points to obtain time versus radioactivity curves. Corresponding whole body time versus radioactivity curves representing injected radioactivity were obtained by adding together radioactivity in all 200×160×160 reconstructed voxels. Tumor radioactivity was normalized to whole-body radioactivity and expressed as percent injected dose per voxel (% ID/vox). The normalized uptake of radiotracer at 60 min (% ID/vox60) was used for subsequent comparisons. The average of the normalized maximum voxel intensity across five slices of tumor % IDvox60max was also use for comparison to account for tumor heterogeneity and existence of necrotic regions in tumor. The area under the curve was calculated as the integral of % ID/vox from 0 to 60 min.
compound,measurement,setting,value
"[2H]C([2H])(O)C([2H])([2H])[N+](C)(C)C[18F] [[^18F]D4-FCH, [^18F]fluoromethyl-[1,2-^2H4]-choline]",parent radiotracer present,choline oxidase,29±4%
same,kidney radioactivity as phosphocholine,[1],60.6±3.7%
same,kidney radioactivity in the form of betaine,[1],20.6±6.2%
same,unknown metabolite (possibly the aldehyde intermediate) in liver,[1],7.4±2.3%
same,unknown metabolite in kidney,[1],8.8±0.2%
same,form of radioactivity in tumors,[1]; iv,mainly in the form of phosphocholine
same,in vitro uptake of 18F-D4-choline,[2],similar
same,% IDvox60max (average of maximum pixel % ID/vox60 across 5 slices),[3],significantly higher
same,tumor area under the time versus radioactivity curve (AUC),[3],higher
